Measurements: patent US9212396B2, “Materials and methods useful for affecting tumor cell growth, migration and invasion” (The Ohio State University, priority 2009, dated 2015)

Tests used:
miR-221 and miR-222 = assay: qRT-PCR of miR-221 and miR-222 in GTL16 cells; type: cell-based, human; conditions: GTL-16 cells, MET inhibition, compared with the untreated cells
Experimental: Real-time PCR was performed using a standard TaqMan PCR Kit protocol on an Applied Biosystems 7900HT Sequence Detection System (Applied Biosystems). The 10 μl PCR reaction included 0.67 μl RT product, 1 μl TaqMan Universal PCR Master Mix (Applied Biosystems), […]. The reactions were incubated in a 96-well plate at 95° C. for […], followed by 40 cycles of 95° C. for 15 s and 60° C. for 1 min. All reactions were run in triplicate. The threshold cycle (CT) is defined as the fractional cycle number at which the fluorescence passes the fixed threshold. The comparative CT method for relative quantization of gene expression (Applied Biosystems) was used to determine miRNA expression levels. The y axis represents the 2(-CT), or the relative expression of the different miRs. miRs expression was calculated relative to U44 and U48 rRNA and multiplied by 104. Experiments were carried out in triplicate for each data point, and data analysis was performed by using software (Bio-Rad).

PTEN and TIMP3 = assay: Western blot of PTEN and TIMP3 in GTL16 cells; type: cell-based, human; conditions: GTL16 cells treated for 24 h with 4 μM
Experimental: Total proteins from NSCLC and HCC cells were extracted with radioimmuno-precipitation assay (RIPA) buffer ([…] NaCl, […] Tris-HCl, pH 7.5, 1% Triton, 0.1% SDS, 0.1% sodium deoxycholate and 1% Nonidet P40). Sample extract (50 μg) was resolved on 7.5-12% SDS-polyacrylamide gels (PAGE) using a mini-gel apparatus (Bio-Rad Laboratories) and transferred to Hybond-C extra nitrocellulose. Membranes were blocked for 1 h with 5% nonfat dry milk in Tris-buffered saline containing 0.05% Tween 20, incubated overnight with primary antibody, washed and incubated with secondary antibody, and visualized by chemiluminescence.
The following primary antibodies were used: anti-PTEN, anti-c-Jun, anti-p-c-Jun, anti-Fos, anti-p-JNK, anti-MMP3, anti-Mc1-1 (Santa Cruz), anti-TIMP3 (Millipore) anti-PI3K (BD Biosciences), anti-ERKs, anti-phospho ERKs, anti-AKT, anti-p-AKT, anti-GSK3b, anti-p-GSK3b (Ser9), anti-PAK1 anti-caspase-8,-3 and -9, anti-PARP, anti-cytochrome c (Cell signaling) and anti-MMP9, anti-FADD (Abcam), anti-1-actin antibody (Sigma). A secondary anti-rabbit or anti-mouse immunoglobulin G (IgG) antibody peroxidase conjugate (Chemicon) was used.

HCC-derived cell lines = assay: Proliferation (MTT) assay on HCC-derived cell lines exposed to TRAIL; type: cell-based, human; conditions: TRAIL 400 ng/ml 24 h
Experimental: Cells were plated in 96-well plates in triplicate and incubated at 37° C. in a 5% CO2 incubator. Super-Killer TRAIL (Alexis Biochemicals) was used for 24-48 h at 400 ng ml-1. Cell viability was examined with 3-(4,5-dimethylthiazol-2-yl)-2,5-dipheniltetrazolium bromide (MTT)-Cell Titer 96 AQueous One Solution Cell Proliferation Assay (Promega), according to the manufacturer's protocol. Metabolically active cells were detected by adding 20 μl of MTT to each well. After 1 h of incubation, the plates were analyzed in a Multilabel Counter (Bio-Rad Laboratories). Apoptosis was assessed using Annexin V-FITC apoptosis detection kits followed by flowcytometric analysis and caspase 3/7 activity. Cells were seeded at 1.8106 cells per 100 mm dish, grown overnight in 10% FBS/RPMI, washed with phosphate-buffered saline (PBS) and then treated for 24 h with 400 ng/ml TRAIL. Following incubation, cells were washed with cold PBS and removed from the plates by trypsinization. […] Statistical analysis was done using two sample t test, assuming equal variance, and P value was calculated based on two-tailed test. For detection of caspase 3/7 activity, cells were cultured in 96-well plates and treated with TRAIL 400 ng/ml and analyzed using Caspase-Glo 3/7 Assay kit (Promega) according to the manufacturer's instructions. Continuous variables are expressed as mean values±standard deviation (s.d.).

H460 xenograft = H460 xenograft in nude mice treated with TRAIL; type: in vivo; conditions: H460 shPTEN and shTIMP3 vs sh control, TRAIL 10 mg/kg/d ip, 35 days
Experimental: (§1) Animal studies were performed according to institutional guidelines. NCI-H460 cells were stable transfected by using shPTEN and TIMP3 plasmids (Santa Cruz); Calu-1 cells were stable transfected with shMET. After the selection in puromycin for 10 days 5 106 (H460) or 7106 (Calu-1) viable cells were injected s.c. into the right flanks of 6-wk-old male nude mice (Charles RiverBreeding Laboratories, Wilmington, Mass.). Treatment started five days (H460 xenograft) or ten days (Calu-1 xenograft) from tumor cell inoculation by daily ip injections of TRAIL/Apo2 (10 mg/kg/d) or vehicle (PBS) for two cycles of 5 days. Tumor size was assessed every five days by a digital caliper. The tumor volumes were determined by measuring the length (1) and the width (w) and calculating the volume (V=lw2/2). 35 days after injection, mice were sacrificed and tumors samples were analyzed by western blot for PTEN, TIMP3 and MET expression. Statistical significance between control and treated animals was evaluated by using Student's t test. Animal experiments were conducted after approval of the Institutional animal care and use committee, Ohio State University.

Calu-1 xenograft = Calu-1 xenograft in nude mice treated with TRAIL; type: in vivo; conditions: Calu-1 shMET vs sh control, TRAIL 10 mg/kg/d ip
Experimental: as §1

Compound	miR-221 and miR-222 downregulated (qRT-PCR) (miR-221 and miR-222)	miR-221 and miR-222 targets (PTEN, TIMP3) expression levels, western blot (PTEN and TIMP3)	cell proliferation / TRAIL-induced cell death (MTT) (HCC-derived cell lines; HepG2, Sk-Hep1 and Huh 7, low miR-221-miR-222 expression)	cell proliferation / TRAIL-induced cell death (MTT) (HCC-derived cell lines; PLC/PRF-5 and Snu-387, high miR-221-miR-222 expression)	tumor engraftment size / TRAIL resistance (H460 xenograft)	tumor growth / sensitivity to TRAIL (Calu-1 xenograft)
Cc1[nH]c(/C=C2\C(=O)Nc3ccc(S(=O)(=O)N(C)c4cccc(Cl)c4)cc32)c(C)c1C(=O)N1CCN(C)CC1 [SU11274]	about 40%	increased miR-221 and miR-222 targets expression levels	–	–	–	–
TRAIL	–	–	underwent TRAIL-induced cell death	did not display sensitivity	increases TRAIL resistance in vivo	more sensitive to TRAIL inducing apoptosis
